“Also recorded” adds a separate entry of the source. Where a SMILES comes first, the peptide text is derived from it. [ ]: non-standard residue; d: D form.

Assay [1] addresses T1, TRPV4 (Mus musculus, UniProt Q9EPK8).
T1 construct: endogenous in cells; host or cells: primary mouse keratinocytes (WT 1° MK)
The experiment in a line: 4α-PDD-evoked Ca++ signaling in 1° MK (fura-2 ratiometric imaging). In kind it is cell-based. The protocol:
(§1) Ca++ imaging of mouse 1° MK in response to chemical activation of TRPV4 was conducted after loading with 2 μM fura2-AM, following a ratiometric Ca2+ imaging protocol with 340/380 nm […] for dual excitation. Ratios of emissions were acquired at 0.5 Hz. ΔR/R0 was determined as the fraction of the increase of a given ratio over baseline ratio, divided by baseline ratio. For stimulation of cells with UVB, where fura-2 was not suitable because of the proximity of stimulation with 340/380 nm and 295 nm, 2 μM fluo4-AM was used instead. Ca++ imaging was carried out at 488 nm excitation, acquisition of emissions at 0.5 Hz, expressed as ΔF/F0. In the custom-built UV optical system, UV LEDs were capped with a ball lens, a transparent optical window in the shape of a hemispherical lens (FIG. 2B). The LED output optical beam focused at 15-20 mm from the lens, with a spot diameter of approximately 1.5-2.0 mm (FIG. 2C). […] The thermal equilibration stage was set for physiological temperature. We confirmed the non-thermal nature of UVB stimulation using the customized 295 nm LED device in a dedicated experiment (FIG. 2D), thus confirming the specific modality of stimulation as UVB.

For assay [2], the system named is primary mouse epidermal keratinocytes (1° MK). The experiment in a line: UVB-evoked Ca++ signaling in primary mouse keratinocytes (fluo-4 imaging). Format: cell-based. The conditions noted are these: for effect on ET1-augmented, UVB-induced Ca++ transients in 1° MK: UVB and ET1 co-exposure; for effect on UVB-evoked Ca++ signal in 1° MK: concentration not given (IPP: same dose as against camphor). As for the experimental part:
Ca++ imaging of 1° MK was conducted following routine procedures. For UVB stimulation, a customized device was built. The system comprised a printed circuit board for electrical interconnects and mechanical support and an ultraviolet light-emitting diode (UV LED).
The operating wavelength was 295 nm (FIG. 2A), with a full-width half-max of 12 nm. The optical power was 500 mW. The focal point was aimed at the plane of the upper surface of the quartz coverslip, which was used to minimize UV absorption along the optical path towards the cells (FIG. 2A-C). The optical intensity at the focal point was estimated to be 150 mW/mm^2.
as §1, with “temperature.” for “temperature. We confirmed the non-thermal nature of UVB stimulation using the customized 295 nm LED device in a dedicated experiment (FIG. 2D), thus confirming the specific modality of stimulation as UVB.”

The test system of assay [3] is ET1. The assay is described as follows: ET1 secretion by non-stimulated 1° MK (ELISA of supernatant). In kind it is cell-based, mouse. The conditions noted are these: two doses of GSK205, dose-dependent.
Assay [4] concerns ET1. The experiment in a line: ET1 expression by UVB-exposed 1° MK (immunocytochemistry). The conditions noted are these: for ET1 immunoreactivity in UVB-exposed 1° MK: immunolabeling 24 hours after UVB-LED; for ET1 expression in UVB-exposed 1° MK, densitometric quantification: vs. control-treated and UVB-exposed cells, n≧25 cells, p<0.05. In kind it is cell-based, mouse. As for the experimental part: 1° MK were exposed to UVB using the UV optical system (295 nm LED). 24 hours later the cells were fixed and fluorescently immunolabeled for ET1. Digital images were captured and subjected to morphometry.
Mouse keratinocytes were cultured on collagen coated quartz coverslips and then stimulated from the bottom using the previously mentioned UV optical system using the 295 nm LED. 24 hours later the cells were fixed in 4% formaldehyde in PBS for 20 minutes, permeabilized with 0.1% Triton X-100 in PBS for 10 minutes, washed, then blocked in 10% normal goat serum in PBS for 45 minutes. Coverslips were incubated overnight with primary antibody mouse anti-ET1 (1:200; Abcam), washed three times in PBS and incubated with secondary antibody for 2 hours at 25° C. Coverslips were washed three times in PBS, once with double-distilled H2O. Digital images were captured using a 40× immersion lens on the BX61 Olympus upright microscope. Morphometric analysis was conducted using ImageJ freeware with tailored regions-of-interest.

For assay [5], the target named is T1, TRPV4. The assay is described as follows: GSK101-evoked Ca++ transient in 1° MK (fura-2). In kind it is cell-based. As for the experimental part: as §1
A further assay has as its target T2, TRPV3 (Mus musculus, UniProt Q8K424).
T2 construct: endogenous in cells; host or cells: primary mouse keratinocytes (1° MK)
T2 sequence (Q8K424 1-791): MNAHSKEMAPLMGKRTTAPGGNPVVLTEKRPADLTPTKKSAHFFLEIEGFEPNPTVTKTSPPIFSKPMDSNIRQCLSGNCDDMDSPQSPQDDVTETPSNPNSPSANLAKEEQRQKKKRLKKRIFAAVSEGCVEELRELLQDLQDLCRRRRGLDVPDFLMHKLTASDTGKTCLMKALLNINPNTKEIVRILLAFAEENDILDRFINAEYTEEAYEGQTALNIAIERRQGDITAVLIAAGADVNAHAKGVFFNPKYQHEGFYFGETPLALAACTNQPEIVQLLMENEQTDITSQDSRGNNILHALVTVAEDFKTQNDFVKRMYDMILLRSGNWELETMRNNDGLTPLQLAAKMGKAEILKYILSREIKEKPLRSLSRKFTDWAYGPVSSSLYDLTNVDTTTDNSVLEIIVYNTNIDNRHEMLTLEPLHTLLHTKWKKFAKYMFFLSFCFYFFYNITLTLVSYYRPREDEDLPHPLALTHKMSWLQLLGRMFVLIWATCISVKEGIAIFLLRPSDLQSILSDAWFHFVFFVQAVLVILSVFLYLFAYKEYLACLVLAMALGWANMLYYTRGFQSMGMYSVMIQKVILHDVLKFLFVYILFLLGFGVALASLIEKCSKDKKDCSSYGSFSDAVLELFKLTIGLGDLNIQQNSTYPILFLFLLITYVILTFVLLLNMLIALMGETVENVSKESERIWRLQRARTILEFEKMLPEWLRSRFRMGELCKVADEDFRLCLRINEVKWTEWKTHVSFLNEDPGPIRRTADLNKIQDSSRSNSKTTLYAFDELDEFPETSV
The experiment in a line: TRPV3 activation experiment: camphor-evoked Ca++ transient in keratinocytes. Format: cell-based.

Another assay concerns mice. The experiment in a line: Nocifensive behavior in response to ET1 footpad injection (von Frey). In kind it is in vivo, mouse. The protocol:
ET1 injections: After determining base-line withdrawal thresholds, each animal received an intraplantar injection of 10 μL 100 nM ET-1 plus contralateral vehicle. Thresholds were again evaluated 1 hour after injection.
Hindpaw mechanical withdrawal thresholds were determined by the automated von Frey hair method, using a 0.5 mm diameter stainless steel filament, part of an automated plantar touch stimulator (Ugo Basile, Modena, Italy). Relevant detail included pre-test acclimatization in a quiet room for 30 min, conducting the test at the same time of day and blinded observers. The stimulus was delivered to the hindpaw, automatically discontinued upon withdrawal, and its intensity recorded automatically. 6-8 trials per animal were conducted, with equal exposure of both hindpaws, leading to an average withdrawal threshold. Results are reported as Δ-threshold, which was calculated by subtracting post-treatment from pre-treatment measurements, expressed as % or relative to 1.0.

T1 sequence (Q9EPK8 whole entry): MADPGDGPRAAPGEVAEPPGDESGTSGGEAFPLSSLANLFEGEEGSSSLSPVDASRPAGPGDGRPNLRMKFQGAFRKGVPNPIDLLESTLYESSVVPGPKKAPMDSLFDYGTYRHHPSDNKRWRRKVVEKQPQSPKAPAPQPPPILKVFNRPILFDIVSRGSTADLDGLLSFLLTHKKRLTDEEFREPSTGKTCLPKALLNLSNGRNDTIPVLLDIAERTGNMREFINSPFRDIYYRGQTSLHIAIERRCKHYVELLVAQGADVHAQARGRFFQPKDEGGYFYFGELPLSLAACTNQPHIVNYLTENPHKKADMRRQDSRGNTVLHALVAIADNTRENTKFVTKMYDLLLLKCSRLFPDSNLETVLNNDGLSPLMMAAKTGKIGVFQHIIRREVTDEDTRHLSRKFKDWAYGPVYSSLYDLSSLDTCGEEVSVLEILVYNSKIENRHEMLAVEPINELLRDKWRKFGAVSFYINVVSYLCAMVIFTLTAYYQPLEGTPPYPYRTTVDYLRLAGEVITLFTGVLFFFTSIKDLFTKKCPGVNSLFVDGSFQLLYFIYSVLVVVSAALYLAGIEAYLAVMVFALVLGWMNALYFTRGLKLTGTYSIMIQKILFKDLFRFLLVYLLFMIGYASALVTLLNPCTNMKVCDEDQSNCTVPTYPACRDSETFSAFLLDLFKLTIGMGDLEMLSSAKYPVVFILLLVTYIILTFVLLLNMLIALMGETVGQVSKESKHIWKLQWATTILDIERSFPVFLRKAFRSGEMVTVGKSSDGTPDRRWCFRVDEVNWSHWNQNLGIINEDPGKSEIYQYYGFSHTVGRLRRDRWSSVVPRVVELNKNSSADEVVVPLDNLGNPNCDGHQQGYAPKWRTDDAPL

As to `CCCCCCCCCC(=O)O[C@@H]1[C@@H](C)[C@@]2(O)[C@@H](C=C(CO)C[C@@]3(O)C(=O)C(C)=C[C@@H]23)[C@@H]2C(C)(C)[C@]12OC(=O)CCCCCCCCC` [4α-PDD, 4α-phorbol 12,13 didecanoate], at TRPV4 [1] (4α-PDD), the “Ca++ transients evoked in 1° MK” value is on record as “Ca++ transients”.

For the compound `CC(C)C[C@@H]1NC(=O)[C@@H](C(C)C)NC(=O)[C@@H]2CCCN2C(=O)[C@@H](CC(=O)O)NC(=O)[C@@H](Cc2c[nH]c3ccccc23)NC1=O` [BQ123] (cyclo(L[dW][dD]P[dV])), in assay [2], the “effect on ET1-augmented, UVB-induced Ca++ transients in 1° MK” value was “attenuated”.

Turning to `CCCC[C@@H](NC(=O)[C@@H](Cc1cn(C(=O)OC)c2ccccc12)NC(=O)[C@H](CC(C)(C)C)NC(=O)N1[C@H](C)CCC[C@@H]1C)C(=O)O` [BQ788], the “effect on ET1-augmented, UVB-induced Ca++ transients in 1° MK” value in assay [2] is “attenuated”.

Consider `O=C(O)C(Cc1ccc2c(c1)oc1ccccc12)NCP(=O)(O)O` (stereo not shown) [CGS35066], for which the “effect on UVB-evoked Ca++ signal in 1° MK” value in assay [2] is reported as “significantly diminished; also recorded: significant attenuation”. Besides, the “ET1 secretion by non-stimulated 1° MK” value with ET1 [3] is listed as “down-regulation”. In the assay on ET1 [4], the “ET1 immunoreactivity in UVB-exposed 1° MK” value (from here on “ET1 immunoreactivity”) was “significant down-regulation” and the “ET1 expression in UVB-exposed 1° MK, densitometric quantification” value (shortened to “ET1 expression in UVB-exposed 1° MK”) is listed as “significant down-regulation”.

Consider `CC(C)C[C@H](NC(=O)c1cc2ccccc2s1)C(=O)N1CCN(C(=O)[C@H](CO)NS(=O)(=O)c2ccc(Cl)cc2Cl)CC1` [GSK101], for which, on TRPV4 [5] (5 nM GSK101, WT 1° MK), the “Ca++ transient evoked in 1° MK” value was “directly stimulate TRPV4; also recorded: Ca++ transient”.

With `C=C(C)CCO[P@@](=O)(O)OP(=O)(O)O` [IPP, isopentenyl pyrophosphate], the “effect on UVB-evoked Ca++ signal in 1° MK” value in assay [2] is listed as “no effect; also recorded: not inhibited”.

For the compound `CC(C)NCCN(C(C)C)S(=O)(=O)c1ccc(Cl)cc1Cl` [RN1734], the “ET1 secretion by non-stimulated 1° MK” value in the assay on ET1 [3] is reported as “significant down-regulation”. For the same compound, in the assay on ET1 [4], the “ET1 immunoreactivity” value is reported as “diminished; also recorded: significant down-regulation” and the “ET1 expression in UVB-exposed 1° MK” value is “significant down-regulation”.

With `COc1ccc2c(c1)CC[C@@H]1[C@@H]2CC[C@]2(C)[C@@H](NCCCCCCN3C(=O)C=CC3=O)CC[C@@H]12` [U73122], in assay [2], the “effect on UVB-evoked Ca++ signal in 1° MK” value is given as “virtually eliminated; also recorded: strongly reduced”. Besides, the “ET1 secretion by non-stimulated 1° MK” value in the assay on ET1 [3] is given as “down-regulation”. In addition, in the assay with ET1 [4], the “ET1 immunoreactivity” value is “dampened; also recorded: significant down-regulation” and the “ET1 expression in UVB-exposed 1° MK” value is “significant down-regulation”.

On to `CC12CCC(CC1=O)C2(C)C` (stereo not shown) [camphor, Camphor], for which the “induction of a Ca++ transient” value at TRPV3 is given as “Induction of a Ca++ transient”.

With endothelin-1 [ET1], the “effect of ET1 co-exposure on UVB-evoked Ca++ transients in 1° MK” value in assay [2] (co-exposure UVB + ET1 peptide) is given as “significant increase; also recorded: augmentation”. The “effect of ET1 on GSK101-evoked Ca++ signaling” value in the assay with TRPV4 [5] (5 nM GSK101, co-exposure to ET1) is reported as “augmented; also recorded: increase in signal”. In addition, the “effect of ET1 co-application on 4α-PDD-evoked Ca++ response” value in the assay with TRPV4 [1] (co-application with 4α-PDD) is reported as “significant increase”. In the assay with mice (Trpv4−/− and tam-treated iKO mice), the “mechanical allodynia after ET1 footpad injection, TRPV4-deficient mice” value is listed as “fail to respond”. Also, in the assay on mice (WT and oil-treated iKO mice, 10 μL 100 nM ET-1 intraplantar), the “mechanical withdrawal thresholds after ET1 footpad injection, control mice” value is on record as “significantly lowered; also recorded: significant levels of mechanical allodynia”.

The values are drawn from patent publication US9701675B2, “Activation of TRPV4 ion channel by physical stimuli and critical role for TRPV4 in organ-specific inflammation and itch” (Duke University, priority 2012, dated 2017).
